PubChem BioAssay AID2060899 (Molecular Pharmacology Branch, DTP, NCI, 2025)
Values belong to the compound of their own block, whether it stands above or below them.

System: 565726-208-R1-J5-PDC complex spheroids, growth inhibition
Assay: Anticancer human tumor 565726-208-R1-J5-PDC patient-derived pancreatic adenocarcinoma cell line growth inhibition [RAS]
Settings: for viability, T/C: stronger effect = lower value
Procedure, shortened: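 Multi-cell-type spheroids: tumor cells plus HUVEC endothelial cells and mesenchymal stem cells. RAS-pathway inhibitors were combined with targeted agents, each dosed in half-log steps down from clinical Cmax, or from 10 microM when Cmax was unknown.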

[1] = curve of first compound, second compound 0.000949 µM
[2] = curve of first compound, second compound 0.003 µM
[3] = curve of first compound, second compound 0.00949 µM
[4] = curve of first compound, second compound 0.03 µM
[5] = curve of first compound, second compound 0.0949 µM
[6] = curve of first compound, second compound 0.3 µM
[7] = second compound 0.000949 µM, first compound 0.0316 µM
[8] = second compound 0.000949 µM, first compound 0.1 µM
[9] = second compound 0.000949 µM, first compound 0.316 µM
[10] = second compound 0.000949 µM, first compound 1 µM
[11] = second compound 0.000949 µM, first compound 3.16 µM
[12] = second compound 0.000949 µM, first compound 10 µM
[13] = second compound 0.003 µM, first compound 0.0316 µM
[14] = second compound 0.003 µM, first compound 0.1 µM
[15] = second compound 0.003 µM, first compound 0.316 µM
[16] = second compound 0.003 µM, first compound 1 µM
[17] = second compound 0.003 µM, first compound 3.16 µM
[18] = second compound 0.003 µM, first compound 10 µM
[19] = second compound 0.00949 µM, first compound 0.0316 µM
[20] = second compound 0.00949 µM, first compound 0.1 µM
[21] = second compound 0.00949 µM, first compound 0.316 µM
[22] = second compound 0.00949 µM, first compound 1 µM
[23] = second compound 0.00949 µM, first compound 3.16 µM
[24] = second compound 0.00949 µM, first compound 10 µM
[25] = second compound 0.03 µM, first compound 0.0316 µM
[26] = second compound 0.03 µM, first compound 0.1 µM
[27] = second compound 0.03 µM, first compound 0.316 µM
[28] = second compound 0.03 µM, first compound 1 µM
[29] = second compound 0.03 µM, first compound 3.16 µM
[30] = second compound 0.03 µM, first compound 10 µM
[31] = second compound 0.0949 µM, first compound 0.0316 µM
[32] = second compound 0.0949 µM, first compound 0.1 µM
[33] = second compound 0.0949 µM, first compound 0.316 µM
[34] = second compound 0.0949 µM, first compound 1 µM
[35] = second compound 0.0949 µM, first compound 3.16 µM
[36] = second compound 0.0949 µM, first compound 10 µM
[37] = second compound 0.3 µM, first compound 0.0316 µM
[38] = second compound 0.3 µM, first compound 0.1 µM
[39] = second compound 0.3 µM, first compound 0.316 µM
[40] = second compound 0.3 µM, first compound 1 µM
[41] = second compound 0.3 µM, first compound 3.16 µM
[42] = second compound 0.3 µM, first compound 10 µM
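Further: spheroids exposed to compounds for seven days before readout.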
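Wherever viability, T/C is given: 100% = DMSO vehicle control viability.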

IC50 [1]: 1.43 µM | IC50 [2]: 1.49 µM | IC50 [3]: 1.48 µM | IC50 [4]: 1.38 µM | IC50 [5]: 1.34 µM | IC50 [6]: 1.04 µM
SMILES: CCC(CC)c1cc(NC2CCC(N)C2)n2nccc2n1 (stereo not given) + CCn1c(-c2cccnc2C(C)OC)c2c3cc(ccc31)N1CCOC(CC(NC(=O)C(C(C)C)N(C)C(=O)C3(F)CCN(C(=O)C#CC(C)(C)N(C)C)CC3)C(=O)N3CCCC(N3)C(=O)OCC(C)(C)C2)C1
viability, T/C [7]: 106% | viability, T/C [8]: 103% | viability, T/C [9]: 101% | viability, T/C [10]: 72% | viability, T/C [11]: 0.76% | viability, T/C [12]: 0.94% | viability, T/C [13]: 104% | viability, T/C [14]: 104% | viability, T/C [15]: 115% | viability, T/C [16]: 76.4% | viability, T/C [17]: 0.77% | viability, T/C [18]: 0.9% | viability, T/C [19]: 112% | viability, T/C [20]: 105% | viability, T/C [21]: 101% | viability, T/C [22]: 74.9% | viability, T/C [23]: 0.96% | viability, T/C [24]: 0.75% | viability, T/C [25]: 108% | viability, T/C [26]: 109% | viability, T/C [27]: 115% | viability, T/C [28]: 68.9% | viability, T/C [29]: 0.82% | viability, T/C [30]: 1.41% | viability, T/C [31]: 92.9% | viability, T/C [32]: 109% | viability, T/C [33]: 94.7% | viability, T/C [34]: 66.9% | viability, T/C [35]: 0.68% | viability, T/C [36]: 0.5% | viability, T/C [37]: 78.5% | viability, T/C [38]: 88.7% | viability, T/C [39]: 96.4% | viability, T/C [40]: 51.9% | viability, T/C [41]: 0.87% | viability, T/C [42]: 1.78%

IC50 [1]: > 10 µM | IC50 [2]: > 10 µM | IC50 [3]: > 10 µM | IC50 [4]: > 10 µM | IC50 [5]: > 10 µM | IC50 [6]: > 10 µM
SMILES: C[C@@H](NC(=O)c1ncnc(N)c1Cl)c1ncc(C(=O)Nc2cc(C(F)(F)F)c(Cl)cn2)s1 + CCn1c(-c2cccnc2C(C)OC)c2c3cc(ccc31)N1CCOC(CC(NC(=O)C(C(C)C)N(C)C(=O)C3(F)CCN(C(=O)C#CC(C)(C)N(C)C)CC3)C(=O)N3CCCC(N3)C(=O)OCC(C)(C)C2)C1
viability, T/C [7]: 111% | viability, T/C [8]: 109% | viability, T/C [9]: 113% | viability, T/C [10]: 103% | viability, T/C [11]: 98.1% | viability, T/C [12]: 83.3% | viability, T/C [13]: 118% | viability, T/C [14]: 111% | viability, T/C [15]: 107% | viability, T/C [16]: 109% | viability, T/C [17]: 98% | viability, T/C [18]: 79.8% | viability, T/C [19]: 108% | viability, T/C [20]: 107% | viability, T/C [21]: 104% | viability, T/C [22]: 114% | viability, T/C [23]: 105% | viability, T/C [24]: 82.2% | viability, T/C [25]: 102% | viability, T/C [26]: 110% | viability, T/C [27]: 112% | viability, T/C [28]: 112% | viability, T/C [29]: 105% | viability, T/C [30]: 80.9% | viability, T/C [31]: 108% | viability, T/C [32]: 101% | viability, T/C [33]: 99.7% | viability, T/C [34]: 108% | viability, T/C [35]: 90.1% | viability, T/C [36]: 90.6% | viability, T/C [37]: 91.3% | viability, T/C [38]: 98.7% | viability, T/C [39]: 95% | viability, T/C [40]: 107% | viability, T/C [41]: 90% | viability, T/C [42]: 77.5%

IC50 (curve of first compound, second compound 0.0316 µM): 0.0928 µM | IC50 (curve of first compound, second compound 0.1 µM): 0.0738 µM | IC50 (curve of first compound, second compound 0.316 µM): 0.273 µM | IC50 (curve of first compound, second compound 1 µM): 0.0633 µM | IC50 (curve of first compound, second compound 3.16 µM): 0.0375 µM | IC50 (curve of first compound, second compound 10 µM): 0.0303 µM
SMILES: Nc1ccn(C2OC(CO)C(O)C2(F)F)c(=O)n1 (stereo not given) + C#Cc1c(F)ccc2cc(O)cc(-c3ncc4c(N5CC6CCC(C5)N6)nc(OCC56CCCN5CC(F)C6)nc4c3F)c12
viability, T/C (second compound 0.0316 µM, first compound 0.00316 µM): 101% | viability, T/C (second compound 0.0316 µM, first compound 0.01 µM): 123% | viability, T/C (second compound 0.0316 µM, first compound 0.0316 µM): 80.8% | viability, T/C (second compound 0.0316 µM, first compound 0.1 µM): 53.5% | viability, T/C (second compound 0.0316 µM, first compound 0.316 µM): 46.7% | viability, T/C (second compound 0.0316 µM, first compound 1 µM): 43.4% | viability, T/C (second compound 0.1 µM, first compound 0.00316 µM): 112% | viability, T/C (second compound 0.1 µM, first compound 0.01 µM): 130% | viability, T/C (second compound 0.1 µM, first compound 0.0316 µM): 64% | viability, T/C (second compound 0.1 µM, first compound 0.1 µM): 54.6% | viability, T/C (second compound 0.1 µM, first compound 0.316 µM): 42.8% | viability, T/C (second compound 0.1 µM, first compound 1 µM): 37.5% | viability, T/C (second compound 0.316 µM, first compound 0.00316 µM): 122% | viability, T/C (second compound 0.316 µM, first compound 0.01 µM): 133% | viability, T/C (second compound 0.316 µM, first compound 0.0316 µM): 54.9% | viability, T/C (second compound 0.316 µM, first compound 0.1 µM): 61.1% | viability, T/C (second compound 0.316 µM, first compound 0.316 µM): 46.1% | viability, T/C (second compound 0.316 µM, first compound 1 µM): 41.1% | viability, T/C (second compound 1 µM, first compound 0.00316 µM): 116% | viability, T/C (second compound 1 µM, first compound 0.01 µM): 110% | viability, T/C (second compound 1 µM, first compound 0.0316 µM): 58.2% | viability, T/C (second compound 1 µM, first compound 0.1 µM): 46% | viability, T/C (second compound 1 µM, first compound 0.316 µM): 47.8% | viability, T/C (second compound 1 µM, first compound 1 µM): 39% | viability, T/C (second compound 3.16 µM, first compound 0.00316 µM): 117% | viability, T/C (second compound 3.16 µM, first compound 0.01 µM): 99.2% | viability, T/C (second compound 3.16 µM, first compound 0.0316 µM): 51.1% | viability, T/C (second compound 3.16 µM, first compound 0.1 µM): 43.5% | viability, T/C (second compound 3.16 µM, first compound 0.316 µM): 41% | viability, T/C (second compound 3.16 µM, first compound 1 µM): 45.7% | viability, T/C (second compound 10 µM, first compound 0.00316 µM): 82% | viability, T/C (second compound 10 µM, first compound 0.01 µM): 85.8% | viability, T/C (second compound 10 µM, first compound 0.0316 µM): 48.6% | viability, T/C (second compound 10 µM, first compound 0.1 µM): 47% | viability, T/C (second compound 10 µM, first compound 0.316 µM): 48.8% | viability, T/C (second compound 10 µM, first compound 1 µM): 44.9%

IC50 (curve of compound): > 1 µM
SMILES: CCN1CCN(Cc2ccc(Nc3ncc(F)c(-c4cc(F)c5nc(C)n(C(C)C)c5c4)n3)nc2)CC1
viability, T/C (compound 0.00316 µM): 96.8% [middle of 4 runs] | viability, T/C (compound 0.0316 µM): 81.5% [middle of 4 runs] | viability, T/C (compound 0.1 µM): 77.8% [middle of 4 runs]
